The text below walks through data of US12528802B2, “Heterocyclic compound” (Takeda Pharmaceutical Company Limited, priority 2019, dated 2026).

For one assay, the target named is T1, glucosylceramide synthase (Homo sapiens, UniProt Q16739).
T1 construct: made in house; host or cells: Expi293F cells (transient expression, pcDNA3.3-TOPO vector); microsome fraction used as enzyme source
T1 sequence (Q16739 1-394): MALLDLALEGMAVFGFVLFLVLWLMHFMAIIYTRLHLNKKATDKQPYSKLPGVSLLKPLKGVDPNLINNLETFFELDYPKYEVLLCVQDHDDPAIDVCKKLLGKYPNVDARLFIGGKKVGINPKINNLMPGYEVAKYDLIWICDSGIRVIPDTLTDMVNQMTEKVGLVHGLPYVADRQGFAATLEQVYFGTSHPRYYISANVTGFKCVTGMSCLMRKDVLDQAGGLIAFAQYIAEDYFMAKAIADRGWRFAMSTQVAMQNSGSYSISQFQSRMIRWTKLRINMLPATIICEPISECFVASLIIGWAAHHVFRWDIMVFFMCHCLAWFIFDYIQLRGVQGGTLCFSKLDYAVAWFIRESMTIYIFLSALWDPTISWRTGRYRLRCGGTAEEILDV
The assay can be described thus: Glucosylceramide synthase (GCS) enzyme assay, microsome fraction, C8 glucosylceramide quantified by Rapidfire MS/MS. It is filed as biochemical. The conditions noted are these: test compound 10 μM; 1.7 μM UDP-glucose, 3 μM C8 ceramide; room temperature 60 min. The protocol: Glucosylceramide Synthase (GCS) Assay
In enzyme assay, a microsome fraction obtained by transient expression by Expi293F™ cells (catalog number: A14527, Thermo Fisher Scientific) was used as a glucosylceramide synthase source. Liposomal C8 ceramide and UDP-glucose were used as substrates. […] After the enzymatic reaction, the analysis was performed with Rapidfire MS/MS (API-4000™, SCIEX), and C8 glucosylceramide was quantified to evaluate the inhibitory activity of the test compound against glucosylceramide synthase activity.
PcDNA3.3TOPO vector (catalog number: K830001, Thermo Fisher Scientific) into which the human GCS gene was inserted was introduced into Expi293F™ Cells (catalog number: A14527, Thermo Fisher Scientific) by using ExpiFectamine™ 293 Transfection Kit (catalog number: A14525, Thermo Fisher Scientific). The cultured cells were dissolved in D-PBS (catalog number: 048-29805, Fuji Film Wako Pure Chemical Industries, Ltd.) containing 1 mM PMSF, and the solution was allowed to stand on ice for 30 minutes, and then subjected to cell disruption (homogenized). The disruption solution was centrifuged at 10,000×g for 20 minutes at 4° C., and the obtained supernatant was centrifuged at 142,400×g for 60 minutes at 4° C. The obtained precipitate was resuspended in a D-PBS solution containing 1 mM PMSF, and homogenized again to prepare as a microsome fraction. Protein quantification was performed by the CBB method.
A 1 mM compound solution prepared by dissolving the test compound in DMSO was added to a 384-well plate by 100 nL so that the final concentration of the test compound was 10 μM. Next, a substrate solution consisting of 3.4 μM UDP-glucose and 6 μM C8 ceramide was added by 5 μL, followed by an enzyme solution consisting of a 25 μg/mL microsome fraction by 5 μL. C8 ceramide was prepared from liposomes composed of 15 mol % C8 ceramide and 85 mol % dioleoyl phosphatidylcholine (1,2-dioleoyl-sn-glycero-3-phosphocholine: DOPC). The enzymatic reaction was carried out in a solution consisting of 20 mM tris-hydrochloric acid buffer (pH 7.5), 0.01% Tween 20, 0.01% bovine serum albumin and 1 mM dithiothreitol at room temperature for 60 min. Then, a solution consisting of 75% isopropanol and 1% formic acid containing 0.25 μM N-Octadecanoyl-D35-psichosine (catalog number: 1914, Matreya) as an internal standard substance was added by 60 μL to stop the enzymatic reaction. 5 μL of the centrifugal supernatant of the obtained reaction product was analyzed by Rapidfire MS/MS (Agilent Technologies) using API-4000™ (SCIEX), and the C8 glucosylceramide was quantified to evaluate the inhibitory activity of the test compound against the glucosylceramide synthase activity. The inhibitory activity of the test compound was evaluated when the C8 glucosylceramide level in the enzyme-free solution was considered as 100% inhibitory and the enzyme activity of the DMSO group in the absence of the compound was considered as 0% inhibitory.
With `O=C1c2ccnc(-c3ccc(F)cc3OCC(F)(F)F)c2CN1c1ccc(C2(O)CCOC2)c(F)c1` (racemic) [Example 235, rac-2-[3-fluoro-4-(3-hydroxyoxolan-3-yl)phenyl]-4-[4-fluoro-2-(2,2,2-trifluoroethoxy)phenyl]-2,3-dihydro-1H-pyrrolo[3,4-c]pyridin-1-one], the “GCS enzyme inhibitory rate at 10 μM (%) (% of control)” value is 97%.
On the same count and under the same terms, the same measure for `O=C1c2ccnc(-c3ccc(F)cc3OCC(F)(F)F)c2CN1c1ccc(C2(O)CCOC2)c(F)c1` (racemic) [Example 238, rac-2-[3-fluoro-4-(3-hydroxyoxolan-3-yl)phenyl]-4-[4-fluoro-2-(2,2,2-trifluoroethoxy)phenyl]-2,3-dihydro-1H-pyrrolo[3,4-c]pyridin-1-one]: 95%.

Still in this assay, the particulars now being: test compound 10 μM; 1.7 μM UDP-glucose, 3 μM C8 ceramide; room temperature 60 min; read-out: GCS enzyme inhibitory rate at 10 μM (%) (% of control).
For the compound `O=C1c2ccnc(-c3ccc(F)cc3OCC(F)(F)F)c2CN1c1ccc(C2(O)CCOC2)c(F)c1` (racemic) [Example 223, rac-2-[3-fluoro-4-(3-hydroxyoxolan-3-yl)phenyl]-4-[4-fluoro-2-(2,2,2-trifluoroethoxy)phenyl]-2,3-dihydro-1H-pyrrolo[3,4-c]pyridin-1-one], the inhibition at 10 µM was found to be 96%.
Same read-out and setting: the same measure for `CC(c1ccc(N2Cc3c(ccnc3-c3ccc(F)cc3OCC(F)(F)F)C2=O)cc1)N1CCCC1=O` (racemic) [Example 232, rac-4-[4-fluoro-2-(2,2,2-trifluoroethoxy)phenyl]-2-{4-[1-(2-oxopyrrolidin-1-yl)ethyl]phenyl}-2,3-dihydro-1H-pyrrolo[3,4-c]pyridin-1-one]: 82%.
Same read-out and setting: to `O=C1c2ccnc(-c3ccccc3OCC(F)(F)F)c2CN1c1ccc(C(O)C(F)(F)F)nc1` (racemic) [Example 249, rac-4-[2-(2,2,2-trifluoroethoxy)phenyl]-2-[6-(2,2,2-trifluoro-1-hydroxyethyl)pyridin-3-yl]-2,3-dihydro-1H-pyrrolo[3,4-c]pyridin-1-one] belongs 98%.
On to `O=C1c2ccnc(-c3ccc(F)cc3OCC(F)(F)F)c2CN1c1ccc(C(O)C(F)F)cc1` (racemic) [Example 250, rac-2-[4-(2,2-difluoro-1-hydroxyethyl)phenyl]-4-[4-fluoro-2-(2,2,2-trifluoroethoxy)phenyl]-2,3-dihydro-1H-pyrrolo[3,4-c]pyridin-1-one], for which the inhibition at 10 µM is 99%.
Same read-out and setting: to `O=C1c2ccnc(-c3ccc(F)cc3OCC(F)(F)F)c2CN1c1ccc(C(O)C(F)(F)F)cc1` (racemic) [Example 251, rac-4-[4-fluoro-2-(2,2,2-trifluoroethoxy)phenyl]-2-[4-(2,2,2-trifluoro-1-hydroxyethyl)phenyl]-2,3-dihydro-1H-pyrrolo[3,4-c]pyridin-1-one] belongs 96%; to `O=C1c2ccnc(-c3ccc(F)cc3OCC(F)(F)F)c2CN1c1ccc(C2(O)CCOC2)cn1` (racemic) [Example 256, rac-4-[4-fluoro-2-(2,2,2-trifluoroethoxy)phenyl]-2-[5-(3-hydroxyoxolan-3-yl)pyridin-2-yl]-2,3-dihydro-1H-pyrrolo[3,4-c]pyridin-1-one], 97%.
On to `CC(O)c1ccc(N2Cc3c(ccnc3-c3ccccc3OCC(F)(F)F)C2=O)cc1` (racemic) [Example 280, rac-2-[4-(1-hydroxyethyl)phenyl]-4-[2-(2,2,2-trifluoroethoxy)phenyl]-2,3-dihydro-1H-pyrrolo [3,4-c]pyridin-1-one], for which the inhibition at 10 µM was determined as 99%.
The same measure, in the same setting: to `CC(O)c1ccc(N2Cc3c(ccnc3-c3ccc(F)cc3OCC(F)(F)F)C2=O)cc1` (racemic) [Example 282, rac-4-[4-fluoro-2-(2,2,2-trifluoroethoxy)phenyl]-2-[4-(1-hydroxyethyl)phenyl]-2,3-dihydro-1H-pyrrolo[3,4-c] pyridin-1-one] belongs 99%.
On the same count and under the same terms, the same measure for `CC(O)c1ccc(N2Cc3c(ccnc3-c3ccc(F)cc3OCC(F)(F)F)C2=O)cc1F` (racemic) [Example 292, rac-2-[3-fluoro-4-(1-hydroxyethyl)phenyl]-4-[4-fluoro-2-(2,2,2-trifluoroethoxy)phenyl]-2,3-dihydro-1H-pyrrolo [3,4-c]pyridin-1-one]: 99%.
`O=C1c2ccnc(-c3ccc(F)cc3OCC(F)(F)F)c2CN1c1ccc(C(O)C(F)(F)F)c(F)c1` (racemic) [Example 293, rac-4-[4-fluoro-2-(2,2,2-trifluoroethoxy)phenyl]-2-[3-fluoro-4-(2,2,2-trifluoro-1-hydroxyethyl)phenyl]-2,3-dihydro-1H-pyrrolo [3,4-c]pyridin-1-one]: the inhibition at 10 µM was 88%.
`CC(O)(c1ccc(N2Cc3c(ccnc3-c3ccccc3OCC(F)(F)F)C2=O)cc1)C(F)(F)F` (racemic) [Example 295, rac-4-[2-(2,2,2-trifluoroethoxy)phenyl]-2-[4-(1,1,1-trifluoro-2-hydroxypropan-2-yl)phenyl]-2,3-dihydro-1H-pyrrolo[3,4-c]pyridin-1-one]: the inhibition at 10 µM was 100%.
Still for that read-out and setting: the same measure for `CC(O)(c1ccc(N2Cc3c(ccnc3-c3ccc(F)cc3OCC(F)(F)F)C2=O)cc1)C(F)F` (racemic) [Example 296, rac-2-[4-(1,1-difluoro-2-hydroxypropan-2-yl)phenyl]-4-[4-fluoro-2-(2,2,2-trifluoroethoxy)phenyl]-2,3-dihydro-1H-pyrrolo[3,4-c]pyridin-1-one]: 100%.
For `CC(O)(c1ccc(N2Cc3c(ccnc3-c3ccccc3OCC(F)(F)F)C2=O)cc1)C(F)F` (racemic) [Example 308, rac-2-[4-(1,1-difluoro-2-hydroxypropan-2-yl)phenyl]-4-[2-(2,2,2-trifluoroethoxy)phenyl]-2,3-dihydro-1H-pyrrolo[3,4-c]pyridin-1-one], the inhibition at 10 µM worked out at 100%.
Same read-out and setting: the same measure for `CC(O)(c1ccc(N2Cc3c(ccnc3-c3ccc(F)cc3OCC(F)(F)F)C2=O)cc1)C(F)(F)F` (racemic) [Example 312, rac-4-[4-fluoro-2-(2,2,2-trifluoroethoxy)phenyl]-2-[4-(1,1,1-trifluoro-2-hydroxypropan-2-yl)phenyl]-2,3-dihydro-1H-pyrrolo [3,4-c]pyridin-1-one]: 99%; for `O=C1c2ccnc(-c3ccccc3OCC(F)(F)F)c2CN1c1ccc(C(O)C2CC2)nc1` (racemic) [Example 317, rac-2-{6-[cyclopropyl(hydroxy)methyl]pyridin-3-yl}-4-[2-(2,2,2-trifluoroethoxy)phenyl]-2,3-dihydro-1H-pyrrolo[3,4-c]pyridin-1-one]: 99%; for `O=C1c2ccnc(-c3ccccc3OCC(F)(F)F)c2CN1c1ccc(C(O)C2CC2)cc1` (racemic) [Example 329, rac-2-{4-[cyclopropyl(hydroxy)methyl]phenyl}-4-[2-(2,2,2-trifluoroethoxy)phenyl]-2,3-dihydro-1H-pyrrolo[3,4-c]pyridin-1-one]: 100%.
Same read-out and setting: to `COC(=O)c1ccc(N2CC3=C(OC(C)CN=C3c3ccccc3OCC(F)(F)F)C2=O)cc1` (racemic) [Example 332, rac-methyl 4-{2-methyl-8-oxo-5-[2-(2,2,2-trifluoroethoxy)phenyl]-2,3,6,8-tetrahydro-7H-pyrrolo [3,4-f][1,4]oxazepin-7-yl}benzoate] belongs 96%; to `CC(O)c1cc2c(c(-c3ccccc3OCC(F)(F)F)n1)CN(c1ccc(OCC(F)(F)F)cc1)C2=O` (racemic) [Example 341, rac-6-(1-hydroxyethyl)-4-[2-(2,2,2-trifluoroethoxy)phenyl]-2-[4-(2,2,2-trifluoroethoxy)phenyl]-2,3-dihydro-1H-pyrrolo[3,4-c]pyridin-1-one], 100%.
